Laboratory results as given in patent US20240336587A1, “CANNABICHROMENE DERIVATIVES AND METHODS FOR MAKING AND USING THE SAME” (University of Mississippi, priority 2021, published 2024).
“Also recorded” adds a separate entry of the source.

Columns and labels:
[1] = Pharmacokinetic study, plasma levels by LC-MS-MS; type: in vivo, mouse
Description: (§1) CBC and CBC-val-HS were dissolved in a solution of 10% ethanol/10% cremophore and 80% saline. Mice received IP injection of test compounds in a volume of 1.0 ml/kg for the abdominal writhing assay and 1.0 ml/kg, IP in the hot plate assay. For pharmacokinetic studies, drug was given in a volume of 1.0 ml/kg for tail vein and oral gavage administration. CBC-val-HS doses were calculated to be the dose equivalent of CBC.
(§2) All experimental procedures were approved by the University of Mississippi Institutional Animal Care and Use Committee (Protocol #19-009). Animal studies reported in compliance with the ARRIVE guidelines. Male wild-type C57BL/6 mice (7-10 weeks, 17-30 grams) were used for all behavioral studies and Male CD-1 (6-7 weeks, 20-25 grams) were used for all pharmacokinetic studies. Mice were purchased from Envigo, (Indianapolis, IN, USA) and acclimated for one week prior to experimentation. Mice were group-housed (n=4-5) in a polycarbonate tub with soft bedding in a temperature (22°±2) and humidity-controlled vivarium under a normal 12:12 h light/dark cycle (lights on at 06:00) with food and water ad libitum. Behavioral testing was performed during the hours of 08:00-18:00 with 30-minute acclimation to the testing room for all studies. Mice were assigned treatments through random block assignment per cage and experimenters were blinded to treatment conditions. Equipment was thoroughly sanitized with 70% ethanol between mice.
A pharmacokinetic study of CBC and CBC-val-HS was conducted using either intraperitoneal (IP), oral gavage, or and intravenous (IV; lateral tail vein) administration routes. For each route, four to five subjects were sacrificed at 0, 0.05, 0.25, 0.5, 1, 2, 4, 8, and 24 hr after drug administration. Mice were anesthetized with isoflurane, and whole blood was collected by cardiac puncture. Plasma was isolated by centrifugation (2000 rpm, 5 min) and stored at −80° C. until assayed.
For CBC in the plasma samples were extracted using solid phase cartridges. CBC-VHS plasma samples were diluted with cold acetonitrile, sonicated, centrifuged, transferred supernatant to another extraction tube, evaporated the solvent and reconstituted with acetonitrile for the analysis. The LC-MS-MS system consists of a Shimadzu Prominence UHPLC with a dual pump, a vacuum solvent micro-degasser, a controlled-temperature auto-sampler, and an MS-MS detector (Applied Biosystems/MSD Sciex QTRAP 4500/3200 with a turbo-ion ESI source operating the positive-ion multiple reaction monitoring, or MRM, mode). […] Deuterated internal standard D3-CBC was used for the quantitation of CBC and CBCVHS. The peak area corresponding to each extracted MRM was measured and correlated to a multiple point calibration curve to determine the plasma concentration of each analyte. […]

[2] = test system: inflammatory nociception (acetic acid-induced abdominal writhes) in C57BL/6 mice; experiment: Abdominal writhing test (acetic acid-induced writhes); type: in vivo; conditions: mouse; for efficacy in abdominal writhing (racemate, diastereoisomers, CBC vs vehicle): one-way ANOVA post-hoc Bonferroni, FIG. 4A
Description: as §1, §2
Abdominal writhing testing was used to quantify inflammatory nociception. Testing was conducted in clear, open-top, acrylic observation chambers (12.7×15.24 cm) located on a smooth surface. Test compounds were administered IP 30 minutes prior to behavioral testing. For testing, mice were then given an IP injection of 0.7% acetic acid in a volume of 10.0 ml/1 kg and immediately placed in an observation chamber for 30-minute test. The number of abdominal writhes served as the dependent measure.

[3] = test system: thermal nociception in C57BL/6 mice; experiment: Hot plate test (thermal nociception, 52° C.); type: in vivo; conditions: mouse, IP 30 minutes prior; FIG. 4B
Description: as §1
as §2, with “Mice were assigned treatments through random block assignment per cage and experimenters were blinded to treatment conditions. Equipment was thoroughly sanitized with 70% ethanol between mice.” left out
The hot plate (Harvard Instruments, Model #52-8570) was used to quantify thermal nociception. […]

[4] = after parenteral administration; cited from earlier work
nociception = conditions: effect was time-dependent; cited from earlier work
paw edema = conditions: restricted to high doses of over 100 mg/kg; cited from earlier work
intestinal inflammation = conditions: far lower doses; cited from earlier work

In the case of CCCCCc1cc(OC(=O)C(NC(=O)CCC(=O)O)C(C)C)c2c(c1)OC(C)(CCC=C(C)C)C=C2 (racemic) [CBC-Val-HS, cannabichromene-valinate-hemisuccinate], the “peak concentration relative to peak concentration of CBC at the same dose equivalent” value ([1]; intravenous administration, in the hour following administration, FIG. 3A) is reported as “greater than 10 × higher”, the “chemical entity detected in circulating plasma” value ([1]; parenteral or oral administration to animals) is reported as “the major chemical component detected in the circulating plasma is the intact CBC-Val-HS; also recorded: a majority of CBC-Val-HS remained intact in circulation” and the “fraction observed in the plasma as intact CBC-Val-HS” value ([1]; plasma after administration) is reported as “two-thirds”. For the same molecule, the “fraction of the derivative observed in the plasma as free CBC” value ([1]; plasma after administration) was “about one-third”, the “number of acid-induced abdominal writhes” value ([2]; increasing doses, IP 30 minutes prior to acetic acid injection, FIG. 2) was “significantly decreased” and the “overall efficacy or potency in comparison to CBC, abdominal writhing” value ([2]; IP, two-way ANOVA, drug factor F=1.62, p=0.38) was “No differences in overall efficacy or potency; also recorded: equally efficacious”. The “efficacy in abdominal writhing (racemate, diastereoisomers, CBC vs vehicle)” value [2] was “as effective as CBC” and the “latency to hotplate withdrawal (anti-nociception against thermal pain)” value [3] was “displayed anti-nociceptive potential”.

In the case of CCCCCc1cc(OC(=O)C(NC(=O)CCC(=O)O)C(C)C)c2c(c1)OC(C)(C)C1CCC(C)=CC21 (centres unmarked) [THC-Val-HS], the “presence of the Val-HS derivative in plasma (comparator cannabinoid derivatives)” value [4] is given as “not found in plasma”.

In the case of CCCCCc1cc(O)c2c(c1)OC(C)(CCC=C(C)C)C=C2 (centres unmarked) [CBC, Cannabichromene], the “anti-nociceptive effect in tail-flick” value (nociception) is given as “biphasic anti-nociceptive effects”, the “anti-inflammatory / anti-edematous properties in vivo” value (paw edema) is given as “mild anti-inflammatory, or anti-edematous properties” and the “efficacy in abdominal writhing (racemate, diastereoisomers, CBC vs vehicle)” value [2] is given as “effective”. The “activity against intestinal inflammation in vivo” value (intestinal inflammation) was “protective activity”.

In the case of C=C(C)C1CCC(C)=CC1c1c(OC(=O)[C@@H](NC(=O)CCC(=O)O)C(C)C)cc(CCCCC)cc1OC(=O)[C@@H](NC(=O)CCC(=O)O)C(C)C (some centres unmarked) [CBD-Val-HS], the “presence of the Val-HS derivative in plasma (comparator cannabinoid derivatives)” value [4] is given as “the only entity found in the plasma”.
